Our source for the melting point values is a melting point compilation (Tetko et al.; mined from patent text by program, amines drawn as free bases though some values may be those of a salt).

Each structure is given as a SMILES string.

As usually defined, the melting point is the temperature of the solid-liquid transition. Regarding `CCCc1ccc2c(c1)C=Cc1cc(C)ccc1C2c1cn(-c2ccnc(N(C)CC(=O)O)n2)c(=O)[nH]c1=S` (stereo not given), the melting point fell in the range of 145 to 150 °C. To `CCCCCCCCNC1=NS(=O)(=O)c2cc(Cl)cnc2N1` belongs 170 to 175 °C. Next, `COCC1Cc2c(Cl)c(C)cc([N+](=O)[O-])c2O1` (stereo not given): 117 to 119 °C; `O=C1CCC(Nc2ncc3ncnc(Nc4ccc(F)c(Cl)c4)c3n2)CC1`: 232 to 234 °C. In the case of `CCN(C(=O)C(C)n1c(=O)n(C)c2nc(-c3ccccc3)ncc21)c1ccccc1` (stereo not given), the melting point was in the range of 150 to 151 °C. To `COC(=O)C1(N(OC2CCCO2)C(=O)Cc2c(C)cc(C)cc2C)CCN(OC)CC1` (stereo not given) belongs 107 to 109 °C.

For the molecule `CS(=O)(=O)c1ccc(C(=O)c2cc(-c3ccncc3)c(N3CCOCC3)s2)cc1`, the melting point amounted to 128 °C. Next, `CC(C)(C)c1ccc(Oc2ccc([N+](=O)[O-])cc2C(=O)Nc2ccccc2)cc1`: 138 to 140 °C. Next, `O=CNc1ccc(C(=O)N(CCN2CCC(C(=O)c3ccc(F)cc3)CC2)c2cccnc2)cc1`: 147 to 148 °C; `O=C(Cn1ccnc1)c1cccc(-c2ccccc2)c1`: 128 to 129 °C; `COC(=O)C(Oc1ccc(C(=O)CN2CCN(c3ccncc3)CC2)cc1)C(=O)OC`: 115 to 116 °C. Next, `C[C@@H](NC(=O)OC(C)(C)C)c1nc2c(C(F)(F)F)cccc2c(O)c1C(=O)Nc1nccs1`: 265 °C; `NCCc1c2ccccc2n2c1[nH]c(=O)c1ccccc12`: more than 300 °C; `O=C(c1ccc(-c2ccc(Cl)cc2)o1)C1CC1`: 88 to 89 °C. In the case of `CCc1nccn1-c1nc(-c2ccc(Cl)cc2)c(CCCOc2ccccc2OC)o1`, the melting point was 78 to 79 °C. To `COCCNC(=O)c1cccc(-c2cccc3cc(Cc4cccc(N(C)C)c4)sc23)c1` belongs 92 to 93 °C. To `O=C(O)c1nn(Cc2cccc(O)c2)c2c1CCc1cc(OCc3cncnc3)ccc1-2` belongs 251 to 256 °C. For `CCc1nn(-c2ccccc2)nc1/C(C#N)=C(\OC(=O)C(C)(C)C)c1c(C)c(C)nn1C`, the melting point came to 119 °C. Next, `O=S1(=O)NCN(C2CC2)c2c1ccc(Cl)c2Cl`: 132 to 133 °C. To `O=[N+]([O-])c1cc(-c2ccncc2)ccc1O` belongs 210 to 212 °C; to `CC(=O)Nc1c(S(N)(=O)=O)cc(C(=O)O)c(Nc2ccccc2)c1NCc1ccco1`, 250 °C. To `COCN1C(=O)COc2ccc([N+](=O)[O-])cc21` belongs 120 to 122 °C. For `O=C(Nc1ccc2[nH]c(=O)n(CCCCN3CC=C(c4ccccc4)CC3)c(=O)c2c1)C(F)(F)F`, the melting point was 245 °C. `CC(C)(CC(O)(Cn1cc(Cl)c(=O)c2cnccc21)C(F)(F)F)c1cccc2c1OCC2` (stereo not given): the melting point lay within 158 to 160 °C.

In turn, `CC(C)C[C@H](NCc1ccc(OC(C)(C)C)cc1)C(=O)N1CCN(C(c2ccc(F)cc2)c2ccc(F)cc2)CC1` registered a melting point of 56 to 61 °C.

`CC(=O)N1CCN(c2ccc(Nc3nc(N)c(C(=O)c4sccc4C)s3)cc2)CC1` displayed a melting point of 290 to 292 °C. The molecule `Cc1ccc(S(=O)(=O)OCC2Cc3cccc(-c4cccc(Cl)c4)c3O2)cc1` (stereo not given) displayed a melting point of 101 to 103 °C. Molecule `COC(=O)CCCc1cc2nc(Cl)ccc2n1S(=O)(=O)c1ccc2nc(N)sc2c1` showed a melting point of 85 to 90 °C. In turn, `CC1(C)COP(N(C2CC(C)(C)NC(C)(C)C2)C2CC(C)(C)NC(C)(C)C2)OC1` had a melting point of 156 °C. To `CCNC(=O)n1nc(Oc2ccc(C#N)cc2C(F)(F)F)cc1C` belongs 103 to 105 °C; to `CNC(=O)c1ccc(-c2ccc(NC(=O)NCc3cccnc3)cc2)nc1N`, 234 to 236 °C. For `COC(=O)c1ccc2c3cccc4cccc(c5ccc(C(=O)N(C)c6cc(C(C)(C)C)ccc6C(C)(C)C)c1c25)c43`, the melting point was in the range of 297 to 298 °C. To `NC1SC2=CC=CC2=C1C(=O)c1ccc(Br)cc1` (stereo not given) belongs 205 to 206 °C; to `CCOC(=O)CN(CCc1ccccc1)C(=O)[C@@H]1C[C@@H](SC(C)=O)CN1S(=O)(=O)c1ccc2ccccc2c1`, 119 to 120 °C; to `CC(=O)N1CCN=C1COc1cccc(C)c1C`, 127 to 130 °C. In the case of `O=c1[nH]nc(COc2ccccc2)s1`, the melting point was 104 to 105 °C.

In turn, `CNC(=O)Oc1ccccc1OC` registered a melting point of 90 to 92 °C. To `Nc1ccc(NC(=O)OCc2ccccc2)c(O)c1` belongs 148 °C; to `COc1cccc(OC)c1C(=O)Nc1nnc(-c2cccc(O)c2)s1`, 243 to 245 °C; to `Cc1cccc(C)c1NC(=O)CN1CCNC(C)C1c1ncnc2sccc12` (stereo not given), 184 to 185 °C. `CC(=O)OCC(OC(C)=O)C(OC(C)=O)C(C=O)OC(C)=O` (stereo not given) registered a melting point of 161 to 162 °C.

For `CCSc1ncc(S(N)(=O)=O)s1`, the melting point fell in the range of 95 to 96 °C. To `O=C(OCc1ccccc1)c1cc(I)ccc1OCc1ccccc1` belongs 72 to 73 °C.

The molecule `COC(=O)c1ccc(OC(=O)c2ccc(C(=O)Oc3ccc(C(=O)OC)cc3)cc2)cc1` yielded a melting point of 243 to 245 °C.

Consider `COc1cc(OC)cc(C(=O)NCC23CC4CC(CC(C4)C2)C3)c1`, for which the melting point lay in the range of 130 to 133 °C. Molecule `CC(C)c1[nH]c2ccccc2c1C=C1SC(=S)N(CC(=O)O)C1=O` registered a melting point of 259 to 260 °C. To `Cc1nc(N2CCCC(NCC3CC3)C2=O)sc1C(=O)NCc1ccccc1` (stereo not given) belongs 125 to 126 °C; to `CN(C)Cc1ccc(CSCCNC(=C[N+](=O)[O-])NCCCN(C)CCN(Cc2ccc(F)cc2)c2ccccn2)o1`, 63 °C; to `CCC(Oc1ccc(Cl)c(C)c1)C(=O)NCc1ccco1` (stereo not given), 100 to 102 °C. To `O=CCCCCCN1C(=O)c2ccccc2C1=O` belongs 69 to 71 °C.

Consider `CCOC(=O)C1=C(C)NC(C)=C(C(=O)OCC)C1c1ccc(Cl)cc1`, for which the melting point fell in the range of 151 to 152 °C.

In the case of `O=C(O)C=Cc1ccc(-c2ccc(-c3cccs3)s2)s1`, the melting point fell in the range of 220 to 225 °C. In turn, `Cc1sc(C)c2c1CCC=C2c1c[nH]cn1` registered a melting point of 179 to 180 °C. The molecule `NC(=O)NC1CCCCC1` displayed a melting point of 175 to 176 °C.

As for `O=C(O)/C=C/c1ccc(OCCC2OCCO2)cc1Oc1ncc(C(F)(F)F)cc1Cl`, the melting point was in the range of 157 to 158 °C. The molecule `CCOC(=O)c1cn(-c2nncs2)c2cc(F)c(F)cc2c1=O` gave a melting point of 235 to 238 °C. In the case of `COc1cc(C2CCN(C(=O)OC(C)(C)C)CC2)cnc1COc1ccc(S(C)(=O)=O)cc1`, the melting point lay in the range of 153 to 154 °C. `O=C(O)Cc1ccc(Cc2nc3c(F)c(F)cc(F)c3s2)s1` showed a melting point of 132 to 133 °C. Next, `COc1ccc(-c2nc(C(N)=O)sc2-c2ccc(OC)cc2)cc1`: 160 to 162 °C; `COC(=O)c1cc2c(NC3CCC(O)CC3)nc(-c3ccccc3)nc2[nH]1` (stereo not given): 225 to 227 °C.

In turn, `O=C(O)Cc1cc(C(=O)c2cccc(F)c2)ccc1O` registered a melting point of 171 °C. To `CP(C)(=O)COC(=O)c1ccc(-n2c(-c3ccccc3)cc3c2-c2ccccc2CC3)cc1` belongs 171 to 173 °C; to `O=c1sc(CO)c(C(F)(F)F)n1CC=C(Cl)Cl`, 81 °C.

For `COc1c2c(c(OC)c(OC)c1OC)CC(CCCCCCCCOC(C)=O)C2`, the melting point lay within 47 to 48 °C.

As to `Cc1ccc(C(=O)NC(C)(C)C)c(Nc2ccc3cn[nH]c3c2)n1`, the melting point fell in the range of 107 to 109 °C.

In the case of `COc1ccc(C(=O)Nc2ccccc2)cc1Nc1cccc(C)c1`, the melting point was in the range of 160 to 161 °C. Next, `Fc1ccc2nc(-c3ccc(Cl)cc3)cc(Cl)c2c1`: 169 to 172 °C; `N#CSCC(=O)c1ccc(Br)cc1`: 148 to 149 °C. Next, `CC1(C)Oc2ccc(C#N)cc2C(N(C(N)=O)c2ccc3c(c2)CN(Cc2ccccc2)C3)C1O` (stereo not given): 168 to 175 °C; `CCOC(=O)C1=C(COCc2nnnn2CCNc2nc(N)n[nH]2)NC(C)=C(C(=O)OC)C1c1cccc(Cl)c1Cl` (stereo not given): 70 °C. To `COc1ccc(N2CCN(c3c(C)c(C)c4c(c3C)C(c3cccc5ccccc35)C(C)(C)O4)CC2)cc1` (stereo not given) belongs 165 to 166 °C; to `C=C(c1ccc(C(C)C)cc1)c1c(C)c(NC(=O)CC(C)(C)C)c(C)c2c1OCC2`, 188 to 189 °C; to `CCOC(=O)[C@H](Cc1ccc(-c2c(OC)cc(C=O)cc2OC)cc1)NC(=O)c1c(F)cccc1F`, 114 to 116 °C.

In turn, `O=C1OC(COc2ccccc2)CN1Sc1ccc(Cl)cc1` (stereo not given) had a melting point of 98 to 101 °C. Next, `Cc1c(C)n2nnnc2c2nc(C)n(CCNC(=O)OC(C)(C)C)c12`: more than 250 °C; `CCOC(=O)Cc1sc(SCc2cc(O)nc(O)n2)nc1C`: 203 to 204 °C; `CCC(CC)C(=O)C1=C(O)c2cc(OC)c(OC)c(OC)c2C(O)(c2ccc(OC)c(OC)c2)C1C(=O)OC` (stereo not given): 156 to 157 °C. Next, `CCCn1nc(C(C)C)c(C(=O)OCc2ccccc2C(=O)c2ccccc2)c1Cc1ccc(-c2ccccc2S(=O)(=O)NC(=O)OC(C)(C)C)c(F)c1`: 57 to 61 °C. To `CC12CCCc3cc(N(CC4CC4)c4ncc(C(=O)O)cn4)cc(c31)CCC2` belongs 123 to 124 °C. `CCOCCNC(=O)c1c(Cl)cccc1[Si](C)(C)C` came in with a melting point of 71 to 73 °C. Next, `O=C(/C=C/c1ccc(C(F)(F)F)cc1-c1cccnc1)Nc1cnc2ccccc2c1`: 196 to 199 °C; `O=C(CCCCCCCBr)OC(C(=O)c1ccccc1)c1ccccc1` (stereo not given): 60 to 61 °C. Next, `CC(C)c1ccc(C(=O)[C@@H]2C[C@H]2c2ccccc2)c(C(C)C)c1OS(N)(=O)=O` (relative stereo): 166 to 168 °C; `CC(C)(C)OC(=O)N[C@@]1(C(=O)OC(C)(C)C)C[C@@H](F)[C@H]2[C@H](C(=O)OC(C)(C)C)[C@H]21`: 140 to 143 °C. To `C1=CCC2=C3C(=NC2=C1)SCCC3CNCc1ccccc1` (stereo not given) belongs 118 °C.
